Measurements: ChEMBL document CHEMBL1201862, “PubChem BioAssay data set” (2004)
Activity calls are given as the source filed them.

What was measured:
[1] = biological target: T1, RNA-binding protein pos-1 (Caenorhabditis elegans, UniProt G5EF15); experiment: inhibitors of POS-1/mex-3 RNA binding, dose response, biochemical, fluorescence polarization (AID 1964);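 also: purified POS-1 fused to maltose binding protein made in E. coli; potency of compounds blocking POS-1 binding to fluorescent RNA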
T1 sequence (G5EF15 whole entry): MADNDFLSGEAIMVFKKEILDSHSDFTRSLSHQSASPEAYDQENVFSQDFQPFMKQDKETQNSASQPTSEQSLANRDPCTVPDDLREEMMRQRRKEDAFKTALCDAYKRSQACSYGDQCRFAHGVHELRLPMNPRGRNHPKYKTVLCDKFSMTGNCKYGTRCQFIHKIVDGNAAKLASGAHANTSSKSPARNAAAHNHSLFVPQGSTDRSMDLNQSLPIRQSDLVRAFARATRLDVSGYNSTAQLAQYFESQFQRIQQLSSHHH

[2] = biological target: T2, Zinc finger protein mex-5 (Caenorhabditis elegans, UniProt Q9XUB2); experiment: MEX-5/TCR-2 RNA interaction inhibitors, dose response, biochemical, C. elegans, fluorescence polarization (AID 1960)
T2 sequence (Q9XUB2 whole entry): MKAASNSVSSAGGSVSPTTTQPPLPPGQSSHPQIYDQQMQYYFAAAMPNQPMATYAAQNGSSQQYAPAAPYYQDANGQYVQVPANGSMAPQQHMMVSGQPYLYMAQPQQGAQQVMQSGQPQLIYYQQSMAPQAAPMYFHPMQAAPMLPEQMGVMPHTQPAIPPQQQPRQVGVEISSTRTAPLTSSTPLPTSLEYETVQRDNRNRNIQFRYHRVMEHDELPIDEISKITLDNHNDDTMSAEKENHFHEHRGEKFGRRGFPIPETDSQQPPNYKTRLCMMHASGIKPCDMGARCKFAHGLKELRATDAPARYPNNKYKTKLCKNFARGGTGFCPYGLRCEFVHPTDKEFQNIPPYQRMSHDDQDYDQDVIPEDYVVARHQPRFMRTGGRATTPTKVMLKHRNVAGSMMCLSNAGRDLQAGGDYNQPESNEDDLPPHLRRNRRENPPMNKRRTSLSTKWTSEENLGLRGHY

[3] = biological target: T3, Intestinal-type alkaline phosphatase (Mus musculus, UniProt P24822); experiment: PubChem AID 488874; assay type: functional
T3 sequence (P24822 whole entry): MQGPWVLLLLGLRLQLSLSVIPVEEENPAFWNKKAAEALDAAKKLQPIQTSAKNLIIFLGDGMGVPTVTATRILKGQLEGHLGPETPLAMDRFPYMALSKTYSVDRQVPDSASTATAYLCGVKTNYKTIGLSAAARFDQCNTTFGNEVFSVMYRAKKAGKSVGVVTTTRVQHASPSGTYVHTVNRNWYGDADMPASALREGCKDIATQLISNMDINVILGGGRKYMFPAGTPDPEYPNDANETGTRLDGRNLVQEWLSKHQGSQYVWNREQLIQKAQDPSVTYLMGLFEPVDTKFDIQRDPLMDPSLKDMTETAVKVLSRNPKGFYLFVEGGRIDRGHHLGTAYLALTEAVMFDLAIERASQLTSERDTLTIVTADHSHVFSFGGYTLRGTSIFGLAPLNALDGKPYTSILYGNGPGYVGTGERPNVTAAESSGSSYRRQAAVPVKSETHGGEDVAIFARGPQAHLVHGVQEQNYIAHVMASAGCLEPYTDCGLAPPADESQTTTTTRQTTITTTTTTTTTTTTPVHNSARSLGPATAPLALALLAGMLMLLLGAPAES

[4] = biological target: T3, Intestinal-type alkaline phosphatase; experiment: PubChem AID 488875; assay type: functional
[5] = biological target: T4, Intestinal-type alkaline phosphatase (Homo sapiens, UniProt P09923); experiment: human intestinal alkaline phosphatase activators, dose response, biochemical, luminescence, uHTS hits (AID 463120); assay type: functional
T4 sequence (P09923 whole entry): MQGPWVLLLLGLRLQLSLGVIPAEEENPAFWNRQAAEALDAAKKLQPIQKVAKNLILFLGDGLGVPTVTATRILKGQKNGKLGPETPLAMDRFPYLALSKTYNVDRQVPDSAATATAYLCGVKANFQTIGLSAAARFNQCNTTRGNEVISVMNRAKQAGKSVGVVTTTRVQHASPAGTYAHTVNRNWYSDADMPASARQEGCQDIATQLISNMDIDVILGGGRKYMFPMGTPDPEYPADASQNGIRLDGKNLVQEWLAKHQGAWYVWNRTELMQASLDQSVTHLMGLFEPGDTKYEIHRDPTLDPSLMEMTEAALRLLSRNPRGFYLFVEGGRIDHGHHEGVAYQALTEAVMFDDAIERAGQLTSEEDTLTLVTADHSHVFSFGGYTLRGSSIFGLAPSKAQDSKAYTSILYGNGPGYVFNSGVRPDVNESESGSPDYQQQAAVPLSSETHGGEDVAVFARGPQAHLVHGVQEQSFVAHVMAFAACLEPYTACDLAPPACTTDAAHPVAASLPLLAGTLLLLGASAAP

[6] = biological target: T4, Intestinal-type alkaline phosphatase; experiment: human IAP activators, dose response, biochemical, luminescent, uHTS hits, set 2 (AID 488817); assay type: functional;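 also: potency of activators that raise enzyme activity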
[7] = biological target: T5, Alkaline phosphatase, tissue-nonspecific isozyme (Homo sapiens, UniProt P05186); experiment: TNAP enzyme activators, dose response, selectivity assay for human IAP activator project, biochemical, TNAP isozyme, human IAP uHTS hits (AID 488886); assay type: functional;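 also: potency of compounds raising TNAP activity as a selectivity check on IAP activators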
T5 sequence (P05186 whole entry): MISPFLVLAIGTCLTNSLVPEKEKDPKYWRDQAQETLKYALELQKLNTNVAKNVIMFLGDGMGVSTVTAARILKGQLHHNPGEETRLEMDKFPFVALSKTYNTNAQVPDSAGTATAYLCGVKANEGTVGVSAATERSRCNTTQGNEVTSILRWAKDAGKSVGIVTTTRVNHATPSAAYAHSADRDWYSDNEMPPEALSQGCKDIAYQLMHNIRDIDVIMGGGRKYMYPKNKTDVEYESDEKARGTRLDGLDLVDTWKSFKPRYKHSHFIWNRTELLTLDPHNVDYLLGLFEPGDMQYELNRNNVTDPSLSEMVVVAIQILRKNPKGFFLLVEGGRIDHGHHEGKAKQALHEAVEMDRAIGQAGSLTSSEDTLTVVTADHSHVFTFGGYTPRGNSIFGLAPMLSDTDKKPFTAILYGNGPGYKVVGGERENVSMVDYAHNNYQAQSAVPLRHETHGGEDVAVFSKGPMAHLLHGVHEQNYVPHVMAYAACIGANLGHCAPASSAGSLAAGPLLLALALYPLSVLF

[8] = biological target: T6, Lysosomal acid glucosylceramidase (Homo sapiens, UniProt P04062); experiment: Dose response cell-based high throughput screening assay to identify enhancers of beta-glucosidase activity. [Related pubchem assays: 784 ]; assay type: functional
T6 sequence (P04062 whole entry): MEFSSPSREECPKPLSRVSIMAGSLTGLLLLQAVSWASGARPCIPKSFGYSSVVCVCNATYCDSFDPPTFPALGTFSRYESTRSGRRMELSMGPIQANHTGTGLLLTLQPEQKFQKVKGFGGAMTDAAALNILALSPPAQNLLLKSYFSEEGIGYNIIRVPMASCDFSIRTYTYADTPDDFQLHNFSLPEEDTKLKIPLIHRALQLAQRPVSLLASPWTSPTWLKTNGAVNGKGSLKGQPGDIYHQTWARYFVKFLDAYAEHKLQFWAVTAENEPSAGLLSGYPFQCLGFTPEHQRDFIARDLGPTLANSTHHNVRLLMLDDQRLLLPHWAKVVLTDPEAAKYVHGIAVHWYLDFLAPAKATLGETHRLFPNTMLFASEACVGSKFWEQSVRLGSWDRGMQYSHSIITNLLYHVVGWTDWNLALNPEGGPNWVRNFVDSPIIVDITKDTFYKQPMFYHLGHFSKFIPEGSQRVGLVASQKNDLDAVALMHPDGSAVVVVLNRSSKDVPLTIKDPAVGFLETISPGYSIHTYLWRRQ

[9] = cytotoxicity in HPDE-C7 cells, cell-based, fluorescence, HTS (AID 430); assay type: functional; conditions: Homo sapiens
[10] = microbe, parasite or virus in culture; assay type: functional; conditions: Mycobacterium tuberculosis
[11] = cytotoxicity in KRAS-transformed pancreatic duct cells, primary screen, cell-based, fluorescence, HTS (AID 431); assay type: functional; conditions: Homo sapiens;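 also: cell line used: HPDE-C7K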
[12] = growth suppression of PTEN-null colon cells, dose response, cell-based, HCT116 PTEN knockout (AID 1047); assay type: functional;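 also: HCT116 colon tumor cells with PTEN knocked out; cells exposed to compound for 60 hours before readout; potency for loss of cell viability measured by luminescence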
[13] = growth suppression of beta-catenin-knockout colon cells, dose response, cell-based, HCT116, human colon tumor (AID 1045); assay type: functional;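 also: HCT116 colon tumor cells with beta catenin knocked out; cells exposed to compound for 60 hours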
[14] = biological target: G-protein coupled receptor 55 (Homo sapiens, UniProt Q9Y2T6); experiment: GPR55 agonists via beta-arrestin recruitment, primary screen, imaging, U2OS cells, beta-arrestin-GFP redistribution (AID 1961); assay type: functional
Chain of G-protein coupled receptor 55 (Q9Y2T6 whole entry): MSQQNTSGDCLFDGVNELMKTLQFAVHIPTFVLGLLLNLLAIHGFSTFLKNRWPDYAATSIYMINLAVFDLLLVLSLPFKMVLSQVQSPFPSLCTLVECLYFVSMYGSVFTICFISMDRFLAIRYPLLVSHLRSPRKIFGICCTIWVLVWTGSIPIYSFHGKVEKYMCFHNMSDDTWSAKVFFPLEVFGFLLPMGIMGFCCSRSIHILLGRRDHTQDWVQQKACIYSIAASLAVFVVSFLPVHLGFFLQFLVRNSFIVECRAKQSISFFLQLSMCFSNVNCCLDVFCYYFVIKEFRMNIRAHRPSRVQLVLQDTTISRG

Cytochrome P450 2D6 = Cytochrome P450 2D6 (Homo sapiens, UniProt P10635);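 also: CYP2D6 member of a cytochrome P450 panel assay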
Chain of Cytochrome P450 2D6 (P10635 whole entry): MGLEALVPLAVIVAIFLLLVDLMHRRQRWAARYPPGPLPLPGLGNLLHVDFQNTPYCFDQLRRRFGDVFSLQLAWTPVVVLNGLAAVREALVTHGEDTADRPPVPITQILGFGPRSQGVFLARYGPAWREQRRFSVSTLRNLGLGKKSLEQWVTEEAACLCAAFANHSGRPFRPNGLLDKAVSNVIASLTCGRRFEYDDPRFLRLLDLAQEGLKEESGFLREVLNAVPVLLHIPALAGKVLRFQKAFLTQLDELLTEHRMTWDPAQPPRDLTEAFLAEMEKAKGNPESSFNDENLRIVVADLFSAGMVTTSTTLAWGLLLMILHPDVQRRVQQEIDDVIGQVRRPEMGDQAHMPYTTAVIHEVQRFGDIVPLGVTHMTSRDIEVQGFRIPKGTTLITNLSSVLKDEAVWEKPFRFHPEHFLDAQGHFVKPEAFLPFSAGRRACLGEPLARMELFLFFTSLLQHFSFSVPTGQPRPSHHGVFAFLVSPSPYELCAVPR

Row | SMILES | EC50 [1] | EC50 [2] | IC50 [3] | EC50 [4] | EC50 [5] | EC50 [6] | EC50 [7] | EC50 [8] | EC50 [9] | CC50 [10] | EC50 [11] | EC50 [12] | EC50 [13] | EC50 [14] | AC50 (Cytochrome P450 2D6)
1 | O=C(NNC(=S)NC(=O)c1ccccc1[N+](=O)[O-])c1ccccc1O | 134 µM (active) | 32.2 µM (active) | > 100 µM (inactive) | > 100 µM (inactive) | 9.16 µM (active) | 9.62 µM (active) | 11.2 µM (active) |  |  |  |  |  |  |  | 
2 | FC(F)(F)c1ccc(N2CCOCC2)c(Nc2nc3ccccc3n3cnnc23)c1 |  |  |  |  |  |  |  | > 50 µM (not active) | 5.89 µM (active) | 27.4 µM (active) | 5.98 µM (active) | 13.5 µM (active) | 16.5 µM (active) | 4.18 µM (active) | 28.2 µM (inconclusive)
